Read-outs that look alike come from different tables or passages of the source.
Assays:
Assay type in all cases: cell-based
CCRF-CEM = test: NCI60 five-dose screen, Leukemia; details: Homo sapiens
HL-60(TB) = test: NCI60 five-dose screen, Leukemia; details: Homo sapiens
K-562 = test: NCI60 five-dose screen, Leukemia; details: Homo sapiens, K562
MOLT-4 = test: NCI60 five-dose screen, Leukemia; details: Homo sapiens
SR = test: NCI60 five-dose screen, Leukemia; details: Homo sapiens
A549/ATCC = test: NCI60 five-dose screen, Non-small Cell Lung Cancer; details: Homo sapiens
EKVX = test: NCI60 five-dose screen, Non-small Cell Lung Cancer; details: Homo sapiens
HOP-62 = test: NCI60 five-dose screen, Non-small Cell Lung Cancer; details: Homo sapiens
NCI-H226 = test: NCI60 five-dose screen, Non-small Cell Lung Cancer; details: Homo sapiens
NCI-H23 = test: NCI60 five-dose screen, Non-small Cell Lung Cancer; details: Homo sapiens
NCI-H460 = test: NCI60 five-dose screen, Non-small Cell Lung Cancer; details: Homo sapiens
NCI-H522 = test: NCI60 five-dose screen, Non-small Cell Lung Cancer; details: Homo sapiens
HCC-2998 = test: NCI60 five-dose screen, Colon Cancer; details: Homo sapiens
HCT-116 = test: NCI60 five-dose screen, Colon Cancer; details: Homo sapiens
HT29 = test: NCI60 five-dose screen, Colon Cancer; details: Homo sapiens, HT-29
SW-620 = test: NCI60 five-dose screen, Colon Cancer; details: Homo sapiens
SF-268 = test: NCI60 five-dose screen, CNS Cancer; details: Homo sapiens
SF-295 = test: NCI60 five-dose screen, CNS Cancer; details: Homo sapiens
SF-539 = test: NCI60 five-dose screen, CNS Cancer; details: Homo sapiens
SNB-75 = test: NCI60 five-dose screen, CNS Cancer; details: Homo sapiens
MALME-3M = test: NCI60 five-dose screen, Melanoma; details: Homo sapiens
MDA-MB-435 = test: NCI60 five-dose screen, Melanoma; details: Homo sapiens
SK-MEL-2 = test: NCI60 five-dose screen, Melanoma; details: Homo sapiens
SK-MEL-28 = test: NCI60 five-dose screen, Melanoma; details: Homo sapiens
SK-MEL-5 = test: NCI60 five-dose screen, Melanoma; details: Homo sapiens
IGROV1 = test: NCI60 five-dose screen, Ovarian Cancer; details: Homo sapiens, IGROV-1
OVCAR-5 = test: NCI60 five-dose screen, Ovarian Cancer; details: Homo sapiens
NCI/ADR-RES = test: NCI60 five-dose screen, Ovarian Cancer; details: Homo sapiens
786–0 = test: NCI60 five-dose screen, Renal Cancer; details: Homo sapiens
A498 = test: NCI60 five-dose screen, Renal Cancer; details: Homo sapiens
RXF 393 = test: NCI60 five-dose screen, Renal Cancer; details: Homo sapiens, RXF 393, Renal Cancer
TK-10 = test: NCI60 five-dose screen, Renal Cancer; details: Homo sapiens
UO-31 = test: NCI60 five-dose screen, Renal Cancer; details: Homo sapiens
PC-3 = test: NCI60 five-dose screen, Prostate Cancer; details: Homo sapiens
HS 578T = test: NCI60 five-dose screen, Breast Cancer; details: Homo sapiens
BT-549 = test: NCI60 five-dose screen, Breast Cancer; details: Homo sapiens
T-47D = test: NCI60 five-dose screen, Breast Cancer; details: Homo sapiens, T47D
[1] = Leukemia, five-dose screen, read-out: GI50
[2] = HL-60(TB), Leukemia, five-dose screen, read-out: GI50
[3] = K-562, Leukemia, five-dose screen, read-out: GI50
[4] = MOLT-4, Leukemia, five-dose screen, read-out: GI50
[5] = A549/ATCC, Non-small Cell Lung Cancer, five-dose screen, read-out: GI50
[6] = Non-small Cell Lung Cancer, five-dose screen, read-out: GI50
[7] = HOP-62, Non-small Cell Lung Cancer, five-dose screen, read-out: GI50
[8] = NCI-H226, Non-small Cell Lung Cancer, five-dose screen, read-out: GI50
[9] = NCI-H23, Non-small Cell Lung Cancer, five-dose screen, read-out: GI50
[10] = NCI-H460, Non-small Cell Lung Cancer, five-dose screen, read-out: GI50
[11] = NCI-H522, Non-small Cell Lung Cancer, five-dose screen, read-out: GI50
[12] = HCC-2998, Colon Cancer, five-dose screen, read-out: GI50
[13] = HCT-116, Colon Cancer, five-dose screen, read-out: GI50
[14] = HT29, Colon Cancer, five-dose screen, read-out: GI50
[15] = SW-620, Colon Cancer, five-dose screen, read-out: GI50
[16] = SF-268, CNS Cancer, five-dose screen, read-out: GI50
[17] = SF-295, CNS Cancer, five-dose screen, read-out: GI50
[18] = SF-539, CNS Cancer, five-dose screen, read-out: GI50
[19] = SNB-75, CNS Cancer, five-dose screen, read-out: GI50
[20] = MALME-3M, Melanoma, five-dose screen, read-out: GI50
[21] = MDA-MB-435, Melanoma, five-dose screen, read-out: GI50
[22] = SK-MEL-2, Melanoma, five-dose screen, read-out: GI50
[23] = SK-MEL-28, Melanoma, five-dose screen, read-out: GI50
[24] = SK-MEL-5, Melanoma, five-dose screen, read-out: GI50
[25] = IGROV1, Ovarian Cancer, five-dose screen, read-out: GI50
[26] = OVCAR-5, Ovarian Cancer, five-dose screen, read-out: GI50
[27] = Ovarian Cancer, five-dose screen, read-out: GI50
[28] = 786–0, Renal Cancer, five-dose screen, read-out: GI50
[29] = A498, Renal Cancer, five-dose screen, read-out: GI50
[30] = TK-10, Renal Cancer, five-dose screen, read-out: GI50
[31] = UO-31, Renal Cancer, five-dose screen, read-out: GI50
[32] = PC-3, Prostate Cancer, five-dose screen, read-out: GI50
[33] = HS 578T, Breast Cancer, five-dose screen, read-out: GI50
[34] = BT-549, Breast Cancer, five-dose screen, read-out: GI50
[35] = T-47D, Breast Cancer, five-dose screen, read-out: GI50

Question: What does the source list for CC[C@]12C=CCN3CC[C@@]4(c5ccc(OC)cc5N(C)[C@H]4[C@@](O)(C(=O)OC)[C@@H]1OC(=O)CCC(=O)N1CCN(c4ccc(C(F)(F)F)cc4)CC1)[C@@H]32 [Compound 28]?
Answer: GI50 (CCRF-CEM; [1]): 1660 nM; GI50 (HL-60(TB); [2]): 1450 nM; GI50 (K-562; [3]): 1700 nM; GI50 (MOLT-4; [4]): 1170 nM; GI50 (SR; [1]): 2290 nM; GI50 (A549/ATCC; [5]): 2750 nM; GI50 (EKVX; [6]): 3630 nM; GI50 (HOP-62; [7]): 5500 nM; GI50 (NCI-H226; [8]): 3160 nM; GI50 (NCI-H23; [9]): 4370 nM; GI50 (NCI-H460; [10]): 3310 nM; GI50 (NCI-H522; [11]): 3240 nM; GI50 (HCC-2998; [12]): 2400 nM; GI50 (HCT-116; [13]): 3310 nM; GI50 (HT29; [14]): 2570 nM; GI50 (SW-620; [15]): 3980 nM; GI50 (SF-268; [16]): 4070 nM; GI50 (SF-295; [17]): 3160 nM; GI50 (SF-539; [18]): 5250 nM; GI50 (SNB-75; [19]): 2000 nM; GI50 (MALME-3M; [20]): 5370 nM; GI50 (MDA-MB-435; [21]): 3890 nM; GI50 (SK-MEL-2; [22]): 2750 nM; GI50 (SK-MEL-28; [23]): 5010 nM; GI50 (SK-MEL-5; [24]): 3240 nM; GI50 (IGROV1; [25]): 3310 nM; GI50 (OVCAR-5; [26]): 5250 nM; GI50 (NCI/ADR-RES; [27]): 3310 nM; GI50 (786–0; [28]): 5010 nM; GI50 (A498; [29]): 5750 nM; GI50 (RXF 393): 2290 nM; GI50 (TK-10; [30]): 4070 nM; GI50 (UO-31; [31]): 2290 nM; GI50 (PC-3; [32]): 2450 nM; GI50 (HS 578T; [33]): 4790 nM; GI50 (BT-549; [34]): 3310 nM; GI50 (T-47D; [35]): 3550 nM

Question: What does the source list for CC[C@]12C=CCN3CC[C@@]4(c5ccc(OC)cc5N(C)[C@H]4[C@@](O)(C(=O)OC)[C@@H]1OC(=O)CCCN1CCN(C(c4ccc(F)cc4)c4ccc(F)cc4)CC1)[C@@H]32 [Compound 25]?
Answer: GI50 (CCRF-CEM): 2040 nM; GI50 (HL-60(TB); HL-60): 1550 nM; GI50 (K-562): 1910 nM; GI50 (MOLT-4; MOLT-4): 1450 nM; GI50 (SR): 1700 nM; GI50 (A549/ATCC; A549): 2630 nM; GI50 (EKVX): 1700 nM; GI50 (HOP-62; HOP-62): 1620 nM; GI50 (NCI-H226; NCI-H226): 2040 nM; GI50 (NCI-H23; NCI-H23): 1910 nM; GI50 (NCI-H460; NCI-H460): 1780 nM; GI50 (NCI-H522; NCI-H522): 1700 nM; GI50 (HCC-2998; HCC 2998): 1660 nM; GI50 (HCT-116; HCT-116): 1780 nM; GI50 (HT29): 1910 nM; GI50 (SW-620; SW-620): 1620 nM; GI50 (SF-268; SF-268): 1700 nM; GI50 (SF-295; SF-295): 1700 nM; GI50 (SF-539; SF-539): 1660 nM; GI50 (SNB-75; SNB-75): 5010 nM; GI50 (MALME-3M; Malme-3M): 1510 nM; GI50 (MDA-MB-435; MDA-MB-435): 1660 nM; GI50 (SK-MEL-2; SK-MEL-2): 2400 nM; GI50 (SK-MEL-28; SK-MEL-28): 1740 nM; GI50 (SK-MEL-5; SK-MEL-5): 1550 nM; GI50 (IGROV1): 1380 nM; GI50 (OVCAR-5; OVCAR-5): 1660 nM; GI50 (NCI/ADR-RES): 1740 nM; GI50 (786–0; 786-0): 1580 nM; GI50 (A498; A498): 5250 nM; GI50 (TK-10; TK-10): 1510 nM; GI50 (UO-31; UO-31): 1660 nM; GI50 (PC-3; PC-3): 1510 nM; GI50 (HS 578T; Hs-578T): 1780 nM; GI50 (BT-549; BT-549): 1780 nM; GI50 (T-47D): 1660 nM

Question: What does the source list for CC[C@]12C=CCN3CC[C@@]4(c5ccc(OC)cc5N(C)[C@H]4[C@@](O)(C(=O)OC)[C@@H]1OC(=O)CCCN1CCN(Cc4ccc(C(F)(F)F)cc4)CC1)[C@@H]32 [Compound 23]?
Answer: GI50 (CCRF-CEM; [1]): 2040 nM; GI50 (HL-60(TB); [2]): 1740 nM; GI50 (K-562; [3]): 1700 nM; GI50 (MOLT-4; [4]): 1150 nM; GI50 (SR; [1]): 1660 nM; GI50 (A549/ATCC; [5]): 1780 nM; GI50 (EKVX; [6]): 1700 nM; GI50 (HOP-62; [7]): 1740 nM; GI50 (NCI-H226; [8]): 2040 nM; GI50 (NCI-H23; [9]): 1910 nM; GI50 (NCI-H460; [10]): 1550 nM; GI50 (NCI-H522; [11]): 1700 nM; GI50 (HCC-2998; [12]): 1510 nM; GI50 (HCT-116; [13]): 1700 nM; GI50 (HT29; [14]): 1660 nM; GI50 (SW-620; [15]): 1550 nM; GI50 (SF-268; [16]): 1350 nM; GI50 (SF-295; [17]): 1780 nM; GI50 (SF-539; [18]): 1580 nM; GI50 (SNB-75; [19]): 1450 nM; GI50 (MALME-3M; [20]): 1580 nM; GI50 (MDA-MB-435; [21]): 1480 nM; GI50 (SK-MEL-2; [22]): 1780 nM; GI50 (SK-MEL-28; [23]): 1620 nM; GI50 (SK-MEL-5; [24]): 1350 nM; GI50 (IGROV1; [25]): 1780 nM; GI50 (OVCAR-5; [26]): 1620 nM; GI50 (NCI/ADR-RES; [27]): 1580 nM; GI50 (786–0; [28]): 1480 nM; GI50 (A498; [29]): 1620 nM; GI50 (RXF 393): 1350 nM; GI50 (TK-10; [30]): 1660 nM; GI50 (UO-31; [31]): 1580 nM; GI50 (PC-3; [32]): 1580 nM; GI50 (HS 578T; [33]): 1510 nM; GI50 (BT-549; [34]): 1660 nM; GI50 (T-47D; [35]): 1740 nM

From publication PMC11277489, “Novel Piperazine Derivatives of Vindoline as Anticancer Agents” (International Journal of Molecular Sciences, 2024)
